# Results: PubChem BioAssay AID1963973 (Molecular Pharmacology Branch, DTP, NCI, 2024)
# Test system: 883617-216-R-J1-PDC tumor spheroids, viability
# Assay: Anticancer human tumor 883617-216-R-J1-PDC patient-derived bladder carcinoma cell line growth inhibition [PI3K]
# Conditions: spheroids with HUVEC and MSC; for IC50: curve of first compound; for viability, T/C: stronger effect = lower value
# Outline: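 Combination activity was assessed by viability in multicellular tumor spheroids carrying HUVEC and MSC components. Agents were tested with PI3K inhibitors from a Cmax-based top dose (or 10 microM) downward in half-log increments.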
# [1] = second compound 0.00316 µM, first compound 0.0316 µM
# [2] = second compound 0.00316 µM, first compound 0.1 µM
# [3] = second compound 0.01 µM, first compound 0.0316 µM
# [4] = second compound 0.01 µM, first compound 0.1 µM
# [5] = second compound 0.0316 µM, first compound 0.0316 µM
# [6] = second compound 0.0316 µM, first compound 0.1 µM
# [7] = second compound 0.1 µM, first compound 0.0316 µM
# [8] = second compound 0.1 µM, first compound 0.1 µM
# [9] = second compound 0.316 µM, first compound 0.0316 µM
# [10] = second compound 0.316 µM, first compound 0.1 µM
# [11] = second compound 1 µM, first compound 0.0316 µM
# [12] = second compound 1 µM, first compound 0.1 µM
# 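Also: spheroids exposed to agents for 7 days before the viability read.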
smiles,measurement,setting,value
C[C@@H](NC(=O)c1ncnc(N)c1Cl)c1ncc(C(=O)Nc2cc(C(F)(F)F)c(Cl)cn2)s1 + CC(Nc1ccc2c(c1)OCCn1cc(N3C(=O)OCC3C(F)F)nc1-2)C(N)=O,IC50,second compound 0.00316 µM,> 10 µM
same,IC50,second compound 0.01 µM,> 10 µM
same,IC50,second compound 0.0316 µM,6.34 µM
same,IC50,second compound 0.1 µM,0.366 µM
same,IC50,second compound 0.316 µM,< 0.0316 µM
same,IC50,second compound 1 µM,< 0.0316 µM
same,"viability, T/C",[1],86.3%
same,"viability, T/C",[2],78.3%
same,"viability, T/C","second compound 0.00316 µM, first compound 0.316 µM",88.9%
same,"viability, T/C","second compound 0.00316 µM, first compound 1 µM",99.8%
same,"viability, T/C","second compound 0.00316 µM, first compound 3.16 µM",80%
same,"viability, T/C","second compound 0.00316 µM, first compound 10 µM",70.8%
same,"viability, T/C",[3],81.2%
same,"viability, T/C",[4],89.4%
same,"viability, T/C","second compound 0.01 µM, first compound 0.316 µM",74.6%
same,"viability, T/C","second compound 0.01 µM, first compound 1 µM",86.2%
same,"viability, T/C","second compound 0.01 µM, first compound 3.16 µM",70.6%
same,"viability, T/C","second compound 0.01 µM, first compound 10 µM",63.6%
same,"viability, T/C",[5],72.2%
same,"viability, T/C",[6],73.6%
same,"viability, T/C","second compound 0.0316 µM, first compound 0.316 µM",65.3%
same,"viability, T/C","second compound 0.0316 µM, first compound 1 µM",58.8%
same,"viability, T/C","second compound 0.0316 µM, first compound 3.16 µM",55.4%
same,"viability, T/C","second compound 0.0316 µM, first compound 10 µM",47.1%
same,"viability, T/C",[7],42.4%
same,"viability, T/C",[8],49.2%
same,"viability, T/C","second compound 0.1 µM, first compound 0.316 µM",61.8%
same,"viability, T/C","second compound 0.1 µM, first compound 1 µM",42.3%
same,"viability, T/C","second compound 0.1 µM, first compound 3.16 µM",36.7%
same,"viability, T/C","second compound 0.1 µM, first compound 10 µM",32.3%
same,"viability, T/C",[9],26.1%
same,"viability, T/C",[10],22.4%
same,"viability, T/C","second compound 0.316 µM, first compound 0.316 µM",26.1%
same,"viability, T/C","second compound 0.316 µM, first compound 1 µM",27.4%
same,"viability, T/C","second compound 0.316 µM, first compound 3.16 µM",27.7%
same,"viability, T/C","second compound 0.316 µM, first compound 10 µM",17.9%
same,"viability, T/C",[11],18.2%
same,"viability, T/C",[12],15.2%
same,"viability, T/C","second compound 1 µM, first compound 0.316 µM",16.3%
same,"viability, T/C","second compound 1 µM, first compound 1 µM",16.9%
same,"viability, T/C","second compound 1 µM, first compound 3.16 µM",16.6%
same,"viability, T/C","second compound 1 µM, first compound 10 µM",12.5%
Cn1ncnc1[C@H]1c2n[nH]c(=O)c3cc(F)cc(c23)N[C@@H]1c1ccc(F)cc1 + CC(Nc1ccc2c(c1)OCCn1cc(N3C(=O)OCC3C(F)F)nc1-2)C(N)=O,IC50,second compound 0.00316 µM,> 0.1 µM
same,IC50,second compound 0.01 µM,> 0.1 µM
same,IC50,second compound 0.0316 µM,0.00536 µM
same,IC50,second compound 0.1 µM,< 0.000316 µM
same,IC50,second compound 0.316 µM,< 0.000316 µM
same,IC50,second compound 1 µM,< 0.000316 µM
same,"viability, T/C","second compound 0.00316 µM, first compound 0.000316 µM",84.3%
same,"viability, T/C","second compound 0.00316 µM, first compound 0.001 µM",83.1%
same,"viability, T/C","second compound 0.00316 µM, first compound 0.00316 µM",89%
same,"viability, T/C","second compound 0.00316 µM, first compound 0.01 µM",78.3%
same,"viability, T/C",[1],63%
same,"viability, T/C",[2],63.2%
same,"viability, T/C","second compound 0.01 µM, first compound 0.000316 µM",83%
same,"viability, T/C","second compound 0.01 µM, first compound 0.001 µM",94.6%
same,"viability, T/C","second compound 0.01 µM, first compound 0.00316 µM",79.3%
same,"viability, T/C","second compound 0.01 µM, first compound 0.01 µM",69%
same,"viability, T/C",[3],64.9%
same,"viability, T/C",[4],59.5%
same,"viability, T/C","second compound 0.0316 µM, first compound 0.000316 µM",69.6%
same,"viability, T/C","second compound 0.0316 µM, first compound 0.001 µM",79.7%
same,"viability, T/C","second compound 0.0316 µM, first compound 0.00316 µM",54.2%
same,"viability, T/C","second compound 0.0316 µM, first compound 0.01 µM",50%
same,"viability, T/C",[5],44.2%
same,"viability, T/C",[6],40.6%
same,"viability, T/C","second compound 0.1 µM, first compound 0.000316 µM",43.4%
same,"viability, T/C","second compound 0.1 µM, first compound 0.001 µM",45.1%
same,"viability, T/C","second compound 0.1 µM, first compound 0.00316 µM",43.7%
same,"viability, T/C","second compound 0.1 µM, first compound 0.01 µM",38.2%
same,"viability, T/C",[7],32.1%
same,"viability, T/C",[8],31.9%
same,"viability, T/C","second compound 0.316 µM, first compound 0.000316 µM",25.7%
same,"viability, T/C","second compound 0.316 µM, first compound 0.001 µM",25.3%
same,"viability, T/C","second compound 0.316 µM, first compound 0.00316 µM",25.8%
same,"viability, T/C","second compound 0.316 µM, first compound 0.01 µM",28.6%
same,"viability, T/C",[9],22.8%
same,"viability, T/C",[10],19.1%
same,"viability, T/C","second compound 1 µM, first compound 0.000316 µM",18.5%
same,"viability, T/C","second compound 1 µM, first compound 0.001 µM",15.8%
same,"viability, T/C","second compound 1 µM, first compound 0.00316 µM",13%
same,"viability, T/C","second compound 1 µM, first compound 0.01 µM",14.6%
same,"viability, T/C",[11],13.5%
same,"viability, T/C",[12],10.8%
